Laboratory results as given in ChEMBL document CHEMBL3813654, “De Novo Design at the Edge of Chaos” (J Med Chem, 2016).

Legend:
[1] = biological target: Cyclin-dependent kinase 4/cyclin D2 (Homo sapiens, UniProt P11802+P30279); test: Inhibition of human recombinant CDK4/Cyclin D2 expressed in baculovirus infected insect Sf9 cells using G1 peptide as substrate after 45 mins by Top Count method in presence of [33P]-ATP
Procathepsin L = Procathepsin L (Homo sapiens, UniProt P07711); test: Activation of human liver cathepsin L using Z-FR-AMC as substrate measured for 120 mins by fluorescence assay
Sequence of Procathepsin L (P07711 whole entry): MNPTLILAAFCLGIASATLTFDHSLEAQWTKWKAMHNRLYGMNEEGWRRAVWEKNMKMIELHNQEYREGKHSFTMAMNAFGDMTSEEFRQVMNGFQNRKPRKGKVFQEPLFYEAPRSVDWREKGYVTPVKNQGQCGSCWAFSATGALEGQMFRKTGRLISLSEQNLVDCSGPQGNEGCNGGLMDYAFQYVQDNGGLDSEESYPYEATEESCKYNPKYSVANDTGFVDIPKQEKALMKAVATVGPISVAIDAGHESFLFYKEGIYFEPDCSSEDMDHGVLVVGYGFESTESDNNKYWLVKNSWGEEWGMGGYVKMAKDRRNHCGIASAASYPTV

MAP kinase p38 = MAP kinase p38 (Homo sapiens, UniProt O15264+Q15759+Q16539+P53778); test: Inhibition of human P38 expressed in yeast using T669 as substrate preincubated for 30 mins followed by [gamma-32P]Mg/ATP addition measured after 25 mins by beta scintillation counting method
Collagenase 3 = Collagenase 3 (Homo sapiens, UniProt P45452); test: Inhibition of human recombinant MMP13 (85 to 255 residues) expressed in Escherichia coli using 5-FAM/QXLTM as substrate by fluorometric assay
Protease = Protease (Human immunodeficiency virus 1, UniProt Q9YQ12); test: Inhibition of HIV1 protease
Sequence of Protease (Q9YQ12 whole entry): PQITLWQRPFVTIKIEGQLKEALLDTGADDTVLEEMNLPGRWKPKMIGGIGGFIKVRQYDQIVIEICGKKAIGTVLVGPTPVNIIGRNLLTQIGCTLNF

[2] = biological target: cGMP-inhibited 3',5'-cyclic phosphodiesterase 3B (Homo sapiens, UniProt Q13370); test: Inhibition of human recombinant PDE3B expressed in insect Sf9 cells assessed as residual cAMP level after 30 mins by HTRF assay
Sequence of cGMP-inhibited 3',5'-cyclic phosphodiesterase 3B (Q13370 whole entry): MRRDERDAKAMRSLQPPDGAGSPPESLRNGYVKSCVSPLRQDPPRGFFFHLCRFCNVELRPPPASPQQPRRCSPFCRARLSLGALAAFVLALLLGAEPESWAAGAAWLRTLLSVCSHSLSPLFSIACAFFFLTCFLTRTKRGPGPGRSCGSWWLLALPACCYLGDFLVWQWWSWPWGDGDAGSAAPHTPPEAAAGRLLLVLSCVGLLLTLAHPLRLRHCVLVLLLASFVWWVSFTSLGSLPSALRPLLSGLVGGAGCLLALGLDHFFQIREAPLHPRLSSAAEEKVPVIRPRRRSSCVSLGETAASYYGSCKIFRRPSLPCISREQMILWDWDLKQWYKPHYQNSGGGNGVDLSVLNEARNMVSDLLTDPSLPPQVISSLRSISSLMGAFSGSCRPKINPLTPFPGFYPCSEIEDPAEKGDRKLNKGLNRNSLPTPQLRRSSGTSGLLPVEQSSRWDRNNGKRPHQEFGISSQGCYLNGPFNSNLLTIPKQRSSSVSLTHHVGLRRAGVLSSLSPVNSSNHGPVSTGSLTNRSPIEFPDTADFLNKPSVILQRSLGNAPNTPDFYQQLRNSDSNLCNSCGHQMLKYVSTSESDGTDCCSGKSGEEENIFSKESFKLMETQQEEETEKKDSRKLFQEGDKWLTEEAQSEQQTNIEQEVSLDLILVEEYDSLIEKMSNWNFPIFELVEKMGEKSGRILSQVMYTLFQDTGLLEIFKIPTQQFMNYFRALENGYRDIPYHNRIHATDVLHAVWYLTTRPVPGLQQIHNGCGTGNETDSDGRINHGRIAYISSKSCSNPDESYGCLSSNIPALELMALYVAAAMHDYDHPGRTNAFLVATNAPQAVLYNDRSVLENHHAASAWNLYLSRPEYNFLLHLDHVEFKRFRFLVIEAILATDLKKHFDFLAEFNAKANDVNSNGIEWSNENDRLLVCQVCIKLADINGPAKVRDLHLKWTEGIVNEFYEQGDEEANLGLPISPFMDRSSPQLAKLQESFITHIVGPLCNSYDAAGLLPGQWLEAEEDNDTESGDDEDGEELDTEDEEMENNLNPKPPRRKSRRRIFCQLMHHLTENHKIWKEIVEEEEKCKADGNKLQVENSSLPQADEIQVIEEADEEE

[3] = biological target: Serine/threonine-protein kinase PLK1 (Homo sapiens, UniProt P53350); test: Inhibition of inactivated PLK1 in human HeLa cells using casein as substrate by immunoprecipitation assay; assay type: cell-based
Sequence of Serine/threonine-protein kinase PLK1 (P53350 whole entry): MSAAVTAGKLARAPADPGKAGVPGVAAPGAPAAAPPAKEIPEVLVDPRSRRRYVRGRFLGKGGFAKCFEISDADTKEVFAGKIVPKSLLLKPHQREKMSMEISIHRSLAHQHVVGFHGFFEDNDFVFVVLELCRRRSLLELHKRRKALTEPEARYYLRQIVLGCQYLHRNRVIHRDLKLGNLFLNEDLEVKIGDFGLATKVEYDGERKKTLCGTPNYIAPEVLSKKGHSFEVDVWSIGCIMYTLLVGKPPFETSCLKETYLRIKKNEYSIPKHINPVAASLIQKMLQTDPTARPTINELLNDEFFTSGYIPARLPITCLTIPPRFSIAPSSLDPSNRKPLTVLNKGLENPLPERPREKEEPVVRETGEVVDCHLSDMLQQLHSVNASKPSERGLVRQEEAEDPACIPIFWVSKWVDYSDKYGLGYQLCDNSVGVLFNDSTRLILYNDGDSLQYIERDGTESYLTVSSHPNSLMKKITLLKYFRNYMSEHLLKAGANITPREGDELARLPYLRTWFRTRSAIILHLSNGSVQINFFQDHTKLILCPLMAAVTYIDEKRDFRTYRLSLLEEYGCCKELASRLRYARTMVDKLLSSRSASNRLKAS

Estrogen receptor beta = Estrogen receptor beta (Homo sapiens, UniProt Q92731); test: Displacement of [3H]-17beta-estradiol from human recombinant ERbeta expressed in rabbit reticulocytes; assay type: cell-based
Sequence of Estrogen receptor beta (Q92731 whole entry): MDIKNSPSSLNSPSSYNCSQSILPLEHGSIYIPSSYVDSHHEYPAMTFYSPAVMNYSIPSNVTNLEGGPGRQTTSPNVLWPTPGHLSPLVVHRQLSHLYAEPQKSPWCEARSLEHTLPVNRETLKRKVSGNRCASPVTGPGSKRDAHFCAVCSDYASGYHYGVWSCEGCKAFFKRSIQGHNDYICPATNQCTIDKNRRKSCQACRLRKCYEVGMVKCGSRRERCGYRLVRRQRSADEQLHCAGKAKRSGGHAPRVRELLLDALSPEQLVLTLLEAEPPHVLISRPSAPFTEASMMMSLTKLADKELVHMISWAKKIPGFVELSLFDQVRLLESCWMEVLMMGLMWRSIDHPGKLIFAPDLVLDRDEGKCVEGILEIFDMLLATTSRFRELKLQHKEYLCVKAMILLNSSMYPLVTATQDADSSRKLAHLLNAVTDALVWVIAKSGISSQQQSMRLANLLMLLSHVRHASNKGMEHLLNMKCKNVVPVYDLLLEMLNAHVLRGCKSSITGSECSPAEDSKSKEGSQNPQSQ

Estrogen receptor = biological target: T1, Estrogen receptor (Homo sapiens, UniProt P03372); test: Displacement of [3H]-17beta-estradiol from human recombinant ERalpha expressed in rabbit reticulocytes; assay type: cell-based
T1 sequence (P03372 whole entry): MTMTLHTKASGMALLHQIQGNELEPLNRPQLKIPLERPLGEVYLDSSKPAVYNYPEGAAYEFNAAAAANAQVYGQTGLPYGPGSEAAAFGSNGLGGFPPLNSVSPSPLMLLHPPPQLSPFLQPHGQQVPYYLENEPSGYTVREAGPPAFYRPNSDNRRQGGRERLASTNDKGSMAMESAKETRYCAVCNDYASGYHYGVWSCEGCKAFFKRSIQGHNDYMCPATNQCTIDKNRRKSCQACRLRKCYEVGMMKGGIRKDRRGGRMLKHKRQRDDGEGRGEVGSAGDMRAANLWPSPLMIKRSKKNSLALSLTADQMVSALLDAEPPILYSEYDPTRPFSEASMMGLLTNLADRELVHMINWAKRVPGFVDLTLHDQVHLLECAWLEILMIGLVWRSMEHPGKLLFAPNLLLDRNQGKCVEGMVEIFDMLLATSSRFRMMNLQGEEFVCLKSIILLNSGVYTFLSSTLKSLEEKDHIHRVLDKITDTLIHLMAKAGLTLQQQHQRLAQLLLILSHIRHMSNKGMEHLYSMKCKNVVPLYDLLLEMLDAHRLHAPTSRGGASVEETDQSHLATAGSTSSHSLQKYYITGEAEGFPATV

Sequence of Cyclin-dependent kinase 4/cyclin D2 (P11802 whole entry): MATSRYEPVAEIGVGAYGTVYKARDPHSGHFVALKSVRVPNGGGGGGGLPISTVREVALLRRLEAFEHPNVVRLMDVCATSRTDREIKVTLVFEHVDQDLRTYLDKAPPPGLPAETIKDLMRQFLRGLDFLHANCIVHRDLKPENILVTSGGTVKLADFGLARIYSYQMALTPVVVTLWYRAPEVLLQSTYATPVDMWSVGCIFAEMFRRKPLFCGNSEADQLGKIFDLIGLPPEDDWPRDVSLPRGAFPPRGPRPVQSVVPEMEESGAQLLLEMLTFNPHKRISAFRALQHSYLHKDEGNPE
Sequence of Cyclin-dependent kinase 4/cyclin D2 (P30279 whole entry): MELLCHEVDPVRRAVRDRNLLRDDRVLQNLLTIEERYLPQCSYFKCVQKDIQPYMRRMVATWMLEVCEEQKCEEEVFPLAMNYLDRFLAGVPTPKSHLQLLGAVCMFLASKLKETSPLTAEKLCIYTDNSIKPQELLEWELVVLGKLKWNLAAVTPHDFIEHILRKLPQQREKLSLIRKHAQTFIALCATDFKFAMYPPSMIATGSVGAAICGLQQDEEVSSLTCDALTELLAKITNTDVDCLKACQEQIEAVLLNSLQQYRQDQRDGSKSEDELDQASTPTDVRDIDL

O=C(Nc1ccccn1)Nc1cccc2c1-c1ccccc1C2=O was tested, and the IC50 [1] was 100 nM.

O=C(COc1ccccc1)N[C@@H](Cc1ccccc1)C(=O)O[C@H]1CCOC1 gave an EC50 (Procathepsin L) of 6000 nM.

For Cc1ccc(-c2ncn(CC3CC3)c2-c2ccncc2)cc1, the IC50 (MAP kinase p38) was 160 nM.

In the case of O=C(O)CCCOc1cccc(CNC(=O)C#Cc2cn(Cc3ccc(C(=O)O)cc3)c(=O)[nH]c2=O)c1, the IC50 (Collagenase 3) is reported as 6 nM.

Work on CC(C)(C)NC(=O)[C@@H]1C[C@@H]2CCCC[C@@H]2CN1C[C@@H](O)[C@H](Cc1ccccc1)NC(=O)OC1CCCC1 yielded an IC50 (Protease) of 160 nM.

O=C1CCC(c2ccc(NC(=O)Cc3cccnc3)cc2)=NN1 showed an EC50 [2] of 6000 nM.

FC(F)(F)c1ccc(OC(CCNCc2ccccn2)c2ccccc2)cc1 (centres undefined) showed an IC50 [3] of 50 nM.

Work on CCc1ccc2c(c1)C(c1ccc(OCCN3CCOCC3)cc1)Cc1cc(O)cc(C)c1-2 (centres undefined) yielded an IC50 (Estrogen receptor beta) of 190 nM and an IC50 (Estrogen receptor) of 9 nM.
